Columns and labels:
Conditions in all cases: 72 h
HepG2 [1] = assay: drug sensitivity score (DSS) for viability; higher = more toxic; extreme values may be limits of the assay
U2OS [2] = assay: as above
Vero E6 [3] = assay: as above
Caco-2 [4] = assay: as above
Calu-3 [5] = assay: as above
HepG2 [6] = assay: cell viability relative to DMSO; higher = less toxic
U2OS [7] = assay: as above
Vero E6 [8] = assay: as above
Caco-2 [9] = assay: as above
Calu-3 [10] = assay: as above
HepG2 [11] = assay: relative viability EC50 (midpoint between 100% and the lowest measured viability); higher = less toxic
U2OS [12] = assay: as above
Vero E6 [13] = assay: as above
Caco-2 [14] = assay: as above
Calu-3 [15] = assay: as above

Structure (SMILES) | drug sensitivity score (HepG2 [1]) | drug sensitivity score (U2OS [2]) | drug sensitivity score (Vero E6 [3]) | drug sensitivity score (Caco-2 [4]) | drug sensitivity score (Calu-3 [5]) | cell viability (HepG2 [6]; 1 nM) | cell viability (HepG2 [6]; 10 nM) | cell viability (HepG2 [6]; 100 nM) | cell viability (HepG2 [6]; 1000 nM) | cell viability (HepG2 [6]; 10000 nM) | cell viability (U2OS [7]; 1 nM) | cell viability (U2OS [7]; 10 nM) | cell viability (U2OS [7]; 100 nM) | cell viability (U2OS [7]; 1000 nM) | cell viability (U2OS [7]; 10000 nM) | cell viability (Vero E6 [8]; 1 nM) | cell viability (Vero E6 [8]; 10 nM) | cell viability (Vero E6 [8]; 100 nM) | cell viability (Vero E6 [8]; 1000 nM) | cell viability (Vero E6 [8]; 10000 nM) | cell viability (Caco-2 [9]; 1 nM) | cell viability (Caco-2 [9]; 10 nM) | cell viability (Caco-2 [9]; 100 nM) | cell viability (Caco-2 [9]; 1000 nM) | cell viability (Caco-2 [9]; 10000 nM) | cell viability (Calu-3 [10]; 1 nM) | cell viability (Calu-3 [10]; 10 nM) | cell viability (Calu-3 [10]; 100 nM) | cell viability (Calu-3 [10]; 1000 nM) | cell viability (Calu-3 [10]; 10000 nM) | relative viability EC50 (HepG2 [11]) | relative viability EC50 (U2OS [12]) | relative viability EC50 (Vero E6 [13]) | relative viability EC50 (Caco-2 [14]) | relative viability EC50 (Calu-3 [15])
C#CCN1C(C)=C(C(=O)OC)C(c2cccc([N+](=O)[O-])c2)C(C(=O)OCC)=C1C (stereo not given) [MRS-1845] | 0 | 0 | 0 | 0.3 | 0 | 95.2% | 105% | 91.3% | 106% | 95.7% | 107% | 97.8% | 105% | 100% | 97.2% | 94.1% | 99.6% | 98% | 99.3% | 99% | 92% | 98.1% | 96.9% | 88.6% | 85.4% | 99.5% | 91.3% | 95.6% | 98.3% | 90.6% | > 10 µM | > 10 µM | > 10 µM | > 10 µM | > 10 µM
CC(=O)NCC(=O)N[C@H](CCC(=O)O)C(=O)O [N-acetylglycyl-D-glutamic-acid] | 0 | 0 | 0 | 0 | 0 | 110% | 95.7% | 98.6% | 102% | 100% | 102% | 102% | 97.7% | 102% | 99.4% | 109% | 99.9% | 103% | 97% | 99.6% | 91.3% | 104% | 93% | 103% | 101% | 94.5% | 106% | 98% | 93% | 95.7% | > 10 µM | > 10 µM | > 10 µM | > 10 µM | > 10 µM
c1ccc2sc(SN3CCOCC3)nc2c1 [N-oxydiethylenebenzothiazole-2-sulfenamide] | 0 | 0 | 0 | 0 | 0 | 101% | 97.1% | 98.9% | 115% | 111% | 96.9% | 105% | 94.1% | 99.1% | 102% | 97% | 94.5% | 99.6% | 104% | 112% | 86.7% | 92.6% | 92.5% | 92.5% | 93.8% | 104% | 101% | 97.4% | 83.3% | 110% | > 10 µM | > 10 µM | > 10 µM | > 10 µM | > 10 µM
CC1(C)Oc2ccc(C#N)cc2[C@@H](OC2=CC(=O)CC2)[C@@H]1O [PCO-400] | 0 | 0 | 0 | 0 | 0 | 101% | 97% | 109% | 105% | 86.9% | 107% | 95.8% | 98.8% | 90.6% | 99.8% | 102% | 97.3% | 97.7% | 102% | 94.6% | 113% | 90.5% | 99.6% | 92.8% | 103% | 96.6% | 95.9% | 110% | 102% | 103% | > 10 µM | > 10 µM | > 10 µM | > 10 µM | > 10 µM
CCCC(=O)C1CCN(c2ncnc3c2CN(C(=O)c2ccc(-c4ccccc4)cc2)CC3)CC1 [PK-THPP] | 0 | 0 | 0 | 0.9 | 0 | 98.9% | 99.1% | 91.2% | 94.9% | 93.6% | 106% | 98.9% | 103% | 97% | 95.6% | 102% | 105% | 99.7% | 104% | 98.3% | 105% | 99.8% | 100% | 100% | 75.3% | 106% | 101% | 98.9% | 105% | 101% | > 10 µM | > 10 µM | > 10 µM | > 10 µM | > 10 µM
O=C(OCCN1CCOCC1)C1(c2ccccc2)CCCCC1 [PRE-084] | 0 | 0 | 0 | 0.4 | 0 | 106% | 102% | 95.6% | 108% | 100% | 99.3% | 100% | 96.5% | 107% | 97.4% | 100% | 99.7% | 106% | 102% | 105% | 108% | 102% | 93.9% | 90.8% | 89.1% | 101% | 107% | 97.2% | 103% | 93% | > 10 µM | > 10 µM | > 10 µM | > 10 µM | > 10 µM
Cc1cc(OCCCS(C)(=O)=O)cc(C)c1-c1cccc(COc2ccc3c(c2)OC[C@H]3CC(=O)O)c1 [TAK-875] | 0 | 0 | 0 | 2.5 | 0 | 93.8% | 97.3% | 95.9% | 94.4% | 96.7% | 95.6% | 98.7% | 96.9% | 96.7% | 94.3% | 100% | 106% | 97.3% | 98.7% | 96.3% | 99.8% | 101% | 89.3% | 85.4% | 77.8% | 98.2% | 105% | 99.8% | 111% | 102% | > 10 µM | > 10 µM | > 10 µM | > 10 µM | > 10 µM
CN1C/C=C/CCOc2cccc(c2)-c2ccnc(n2)Nc2cccc(c2)C1 [TG-02] | 19.3 | 20 | 17.1 | 16.2 | 12.4 | 111% | 104% | 79.2% | 9.1% | 3.2% | 102% | 101% | 86% | 2.5% | 1.8% | 99.4% | 97.8% | 90% | 13.6% | 5.6% | 89.8% | 88.2% | 70.4% | 28.4% | 38.9% | 97.1% | 97.7% | 87.7% | 43.4% | 51.8% | 0.207 µM | 0.204 µM | 0.297 µM | 0.105 µM | 0.167 µM
O.O=[Si]=O.O=[Si]=O.O=[Si]=O.O=[Si]=O.[O]=[Mg].[O]=[Mg].[O]=[Mg] [Talc] | 0 | 0 | 0 | 0 | 0.2 | 106% | 95.1% | 106% | 95.4% | 96.7% | 96.7% | 98.3% | 95.9% | 100% | 95.3% | 95.7% | 104% | 103% | 97% | 103% | 97.2% | 102% | 94.7% | 101% | 90% | 87% | 98.1% | 89.8% | 107% | 81.3% | > 10 µM | > 10 µM | > 10 µM | > 10 µM | > 10 µM
CS(=O)(=O)c1ccc(-c2cnc(N)c(C(=O)Nc3ccccc3)n2)cc1 [VE-821] | 0.4 | 0 | 0 | 0 | 0 | 97.3% | 99.3% | 95% | 98.6% | 84.2% | 102% | 95.7% | 96.9% | 93.1% | 91.6% | 99.1% | 95.7% | 97.1% | 98% | 94% | 102% | 94.8% | 101% | 95.1% | 97.4% | 99.1% | 94.7% | 102% | 95.1% | 95.3% | > 10 µM | > 10 µM | > 10 µM | > 10 µM | > 10 µM
CCOc1cc(C(=O)N2CCC(N3CCN(C)CC3)CC2)ccc1Nc1ncc2c(n1)N(C1CCCC1)c1ccccc1C(=O)N2C [XMD17-109] | 7.2 | 5.7 | 9.5 | 6.5 | 5.5 | 101% | 105% | 94.2% | 76.9% | 25.2% | 99.6% | 95.6% | 101% | 89.5% | 28.4% | 94.3% | 97.1% | 94.4% | 62.1% | 8.8% | 96.1% | 104% | 99% | 81.6% | 32% | 104% | 87.2% | 99% | 99% | 4.4% | 1.45 µM | 2.01 µM | 1.21 µM | 1.48 µM | 3.09 µM
Cn1c(=O)c2c(ncn2CC(=O)O)n(C)c1=O [acefylline] | 0 | 0 | 0.1 | 0 | 0 | 93% | 98.8% | 102% | 95.1% | 108% | 98.7% | 97% | 96.8% | 95.5% | 97.8% | 104% | 105% | 107% | 105% | 86.5% | 102% | 98% | 114% | 110% | 105% | 104% | 101% | 114% | 93.8% | 102% | > 10 µM | > 10 µM | > 10 µM | > 10 µM | > 10 µM
CC(=O)N[C@@H](CCC(N)=O)C(=O)O [aceglutamide] | 0 | 0 | 0.3 | 3.5 | 0 | 90.7% | 89.7% | 104% | 92.5% | 86.4% | 106% | 103% | 99.2% | 98.8% | 98.5% | 98.3% | 104% | 99.8% | 99.9% | 83.7% | 95.5% | 103% | 84.5% | 82.4% | 83% | 101% | 89.8% | 101% | 110% | 103% | > 10 µM | > 10 µM | > 10 µM | > 10 µM | > 10 µM
CC(=O)NO [acetohydroxamic-acid] | 0 | 0 | 0 | 0 | 0 | 99.6% | 101% | 95.9% | 96.2% | 97.3% | 106% | 102% | 97.7% | 98.7% | 99.8% | 97.6% | 97.2% | 102% | 101% | 97.6% | 96.3% | 97.6% | 94.9% | 95.5% | 112% | 104% | 98.8% | 112% | 92.6% | 96.9% | > 10 µM | > 10 µM | > 10 µM | > 10 µM | > 10 µM
